Read-outs that look alike come from different tables or passages of the source.
What was measured:
[1] = Stability towards liver microsomes of mice
[2] = Metabolic stability in vivo: blood clearance, blood components, radiometabolites; parameters: species or system male Wistar rats; conditions: for half-life: male, Wistar, rat, arterial blood, iv, 70 MBq, i.v., arterial blood samples; for half-life / Intact compound in blood plasma: rats; for Radioactivity distribution in blood components: erythrocytes / Radioactivity distribution in blood components: plasma / Radioactivity distribution in blood components: plasma supernatant / Radioactivity distribution in blood components: plasma pellet (bound to plasma proteins) / Radioactivity distribution in blood components: plasma pellet: rat blood; for Radioactivity distribution in blood components: plasma pellet (bound to plasma proteins): + TCA precipitation; for Intact compound in blood plasma: radio-HPLC
log D7.4 by HPLC method = type: physicochemical; conditions: HPLC retention on ODP-50 4B column (Shodex Asahipak); pH 7.4, HPLC-based method
[3] = Ex vivo biodistribution in healthy rats; conditions: for Biodistribution BAT: brown adipose tissue; for Biodistribution BAT / Biodistribution adrenals / Biodistribution blood / Biodistribution brain / Biodistribution femur / Biodistribution harderian gland / Biodistribution heart / Biodistribution intestine / Biodistribution kidneys / Biodistribution liver / Biodistribution lung / Biodistribution muscle / Biodistribution pancreas / Biodistribution skin & hair / Biodistribution spleen / Biodistribution stomach / Biodistribution testes / Biodistribution thymus / Biodistribution thyroid gland / Biodistribution urine (calc.) / Biodistribution femur (femur uptake, 18F-defluorination) / Biodistribution WAT: i.v., n = 8, mean ± SD; for Biodistribution WAT: white adipose tissue
[4] = target: phosphodiesterase-5 (PDE51A); parameters: method as in PMID 17383621; conditions: ref 54; cited from earlier work
[5] = target: sarcoplasmic/ER Ca2+ ATPase (SERCA); parameters: method as in PMID 23875171, PMID 12076251; conditions: ref 49 and 55; cited from earlier work
hCA-XII = test system: hCA-XII; parameters: method as in PMID 23875171, PMID 16290146; conditions: ref 49 and 56; cited from earlier work
protein kinase B (PKB) = target: protein kinase B (PKB); parameters: method as in PMID 16757698, PMID 14973075; conditions: ref 50 and 53; cited from earlier work
CYP3A4 = test system: CYP3A4; parameters: method as in PMID 10681375, PMID 22336956; conditions: ref 12,51; cited from earlier work
hCA-IX = test system: hCA-IX; parameters: method as in PMID 23875171, PMID 16290146; conditions: ref 49 and 56; cited from earlier work
[6] = target: 3-phosphoinositide-dependent kinase 1 (PDK1); conditions: cited from earlier work
[7] = parameters: method as in PMID 30072617; conditions: male baboon, 90 min p.i. ref 18; cited from earlier work
[8] = read-out: t1/2 distribution (blood clearance of intact compound)
[9] = read-out: t1/2 elimination (blood clearance of intact compound)

Compound: Cc1ccc(-c2cc(CC[18F])nn2-c2ccc(S(C)(=O)=O)cc2)cc1 [[^18F]5b]
- glucuronidation in murine liver microsomes ([1]; oxidative conditions plus MgCl2 5 mM, alamethicin 50 μg/mL, UDPGA 5 mM): not observed
- half-life [2, 8]: 1 min
- half-life [2, 9]: 20.7 min
- Radioactivity distribution in blood components: erythrocytes ([2]; 60 min p.i., + TCA): 23%
- Radioactivity distribution in blood components: plasma ([2]; 60 min p.i., + TCA): 71%
- Radioactivity distribution in blood components: plasma supernatant ([2]; 60 min p.i., + TCA): 35%
- Radioactivity distribution in blood components: plasma pellet (bound to plasma proteins) ([2]; 60 min p.i.): 29%
- Radioactivity distribution in blood components: erythrocytes ([2]; 60 min p.i., - TCA): 21%
- Radioactivity distribution in blood components: plasma ([2]; 60 min p.i., - TCA): 67%
- Radioactivity distribution in blood components: plasma pellet ([2]; 60 min p.i., - TCA): 1%
- Radioactivity distribution in blood components: plasma supernatant ([2]; 60 min p.i., - TCA): 72%
- Intact compound in blood plasma ([2]; 20 min p.i.): 35%
- Intact compound in blood plasma ([2]; 60 min p.i.): 30%
- chromatographic logD (log D7.4 by HPLC method): 2.65
- liver-to-bladder ratio (hepatobiliary vs renal excretion) ([3]; 60 min p.i.): 2.6
- Biodistribution BAT ([3]; 5 min p.i.): 2.79 ± 0.85 SUV
- Biodistribution BAT ([3]; 60 min p.i.): 1.12 ± 0.22 SUV
- Biodistribution adrenals ([3]; 5 min p.i.): 2.95 ± 0.73 SUV
- Biodistribution blood ([3]; 5 min p.i.): 0.32 ± 0.02 SUV
- Biodistribution brain ([3]; 5 min p.i.): 0.5 ± 0.1 SUV
- Biodistribution femur ([3]; 5 min p.i.): 0.6 ± 0.05 SUV
- Biodistribution harderian gland ([3]; 5 min p.i.): 2.37 ± 0.19 SUV
- Biodistribution heart ([3]; 5 min p.i.): 0.86 ± 0.07 SUV
- Biodistribution intestine ([3]; 5 min p.i.): 14.17 ± 1.43 %ID
- Biodistribution kidneys ([3]; 5 min p.i.): 2 ± 0.42 SUV
- Biodistribution liver ([3]; 5 min p.i.): 3.37 ± 0.63 SUV
- Biodistribution lung ([3]; 5 min p.i.): 1.06 ± 0.06 SUV
- Biodistribution muscle ([3]; 5 min p.i.): 0.63 ± 0.09 SUV
- Biodistribution pancreas ([3]; 5 min p.i.): 1.6 ± 0.16 SUV
- Biodistribution skin & hair ([3]; 5 min p.i.): 0.98 ± 0.09 SUV
- Biodistribution spleen ([3]; 5 min p.i.): 0.84 ± 0.12 SUV
- Biodistribution stomach ([3]; 5 min p.i.): 1.35 ± 0.6 %ID
- Biodistribution testes ([3]; 5 min p.i.): 0.47 ± 0.05 SUV
- Biodistribution thymus ([3]; 5 min p.i.): 1.09 ± 0.23 SUV
- Biodistribution thyroid gland ([3]; 5 min p.i.): 1.01 ± 0.1 SUV
- Biodistribution urine (calc.) ([3]; 5 min p.i.): 0.02 ± 1.08 %ID
- Biodistribution adrenals ([3]; 60 min p.i.): 0.9 ± 0.13 SUV
- Biodistribution blood ([3]; 60 min p.i.): 0.08 ± 0.02 SUV
- Biodistribution brain ([3]; 60 min p.i.): 0.09 ± 0.01 SUV
- Biodistribution femur (femur uptake, 18F-defluorination) ([3]; 60 min p.i.): 1.0 ± 0.2 SUV
- Biodistribution harderian gland ([3]; 60 min p.i.): 1.08 ± 0.18 SUV
- Biodistribution heart ([3]; 60 min p.i.): 0.18 ± 0.02 SUV
- Biodistribution intestine ([3]; 60 min p.i.): 41.52 ± 3.98 %ID
- Biodistribution kidneys ([3]; 60 min p.i.): 0.57 ± 0.14 SUV
- Biodistribution liver ([3]; 60 min p.i.): 0.74 ± 0.14 SUV
- Biodistribution lung ([3]; 60 min p.i.): 0.25 ± 0.04 SUV
- Biodistribution muscle ([3]; 60 min p.i.): 0.23 ± 0.05 SUV
- Biodistribution pancreas ([3]; 60 min p.i.): 0.57 ± 0.14 SUV
- Biodistribution skin & hair ([3]; 60 min p.i.): 0.32 ± 0.09 SUV
- Biodistribution spleen ([3]; 60 min p.i.): 0.28 ± 0.08 SUV
- Biodistribution stomach ([3]; 60 min p.i.): 0.94 ± 0.58 %ID
- Biodistribution testes ([3]; 60 min p.i.): 0.24 ± 0.06 SUV
- Biodistribution thymus ([3]; 60 min p.i.): 0.23 ± 0.04 SUV
- Biodistribution thyroid gland ([3]; 60 min p.i.): 0.27 ± 0.06 SUV
- Biodistribution urine (calc.) ([3]; 60 min p.i.): 15.85 ± 2.16 %ID
- Biodistribution WAT ([3]; 5 min p.i.): 1.73 ± 0.84 SUV
- Biodistribution WAT ([3]; 60 min p.i.): 1.81 ± 0.8 SUV

Compound: Cc1ccc(-c2cc(C[18F])nn2-c2ccc(S(C)(=O)=O)cc2)cc1 [[^18F]5a, 3-([^18F]fluoromethyl)-1-[4-(methylsulfonyl)phenyl]-5-(p-tolyl)-1H-pyrazole]
- half-life [2, 8]: 0.6 min
- half-life [2, 9]: 19.5 min
- Radioactivity distribution in blood components: erythrocytes ([2]; 60 min p.i., + TCA): 19%
- Radioactivity distribution in blood components: plasma ([2]; 60 min p.i., + TCA): 71%
- Radioactivity distribution in blood components: plasma supernatant ([2]; 60 min p.i., + TCA): 42%
- Radioactivity distribution in blood components: plasma pellet (bound to plasma proteins) ([2]; 60 min p.i.): 25%
- Radioactivity distribution in blood components: erythrocytes ([2]; 60 min p.i., - TCA): 17%
- Radioactivity distribution in blood components: plasma ([2]; 60 min p.i., - TCA): 67%
- Radioactivity distribution in blood components: plasma pellet ([2]; 60 min p.i., - TCA): 1%
- Radioactivity distribution in blood components: plasma supernatant ([2]; 60 min p.i., - TCA): 80%
- Intact compound in blood plasma ([2]; 20 min p.i.): 46%
- Intact compound in blood plasma ([2]; 60 min p.i.): 28%
- chromatographic logD (log D7.4 by HPLC method): 2.72
- liver-to-bladder ratio (hepatobiliary vs renal excretion) ([3]; 60 min p.i.): 2.3
- Biodistribution BAT ([3]; 5 min p.i.): 2.21 ± 0.91 SUV
- Biodistribution BAT ([3]; 60 min p.i.): 1.13 ± 0.29 SUV
- Biodistribution adrenals ([3]; 5 min p.i.): 2.25 ± 1.19 SUV
- Biodistribution blood ([3]; 5 min p.i.): 0.46 ± 0.15 SUV
- Biodistribution brain ([3]; 5 min p.i.): 0.46 ± 0.14 SUV
- Biodistribution femur ([3]; 5 min p.i.): 0.96 ± 0.53 SUV
- Biodistribution harderian gland ([3]; 5 min p.i.): 1.5 ± 0.6 SUV
- Biodistribution heart ([3]; 5 min p.i.): 0.79 ± 0.23 SUV
- Biodistribution intestine ([3]; 5 min p.i.): 6.78 ± 2.69 %ID
- Biodistribution kidneys ([3]; 5 min p.i.): 1.53 ± 0.49 SUV
- Biodistribution liver ([3]; 5 min p.i.): 3.84 ± 1.52 SUV
- Biodistribution lung ([3]; 5 min p.i.): 0.89 ± 0.38 SUV
- Biodistribution muscle ([3]; 5 min p.i.): 0.35 ± 0.18 SUV
- Biodistribution pancreas ([3]; 5 min p.i.): 0.97 ± 0.27 SUV
- Biodistribution skin & hair ([3]; 5 min p.i.): 0.97 ± 0.31 SUV
- Biodistribution spleen ([3]; 5 min p.i.): 0.53 ± 0.24 SUV
- Biodistribution stomach ([3]; 5 min p.i.): 0.87 ± 0.65 %ID
- Biodistribution testes ([3]; 5 min p.i.): 0.34 ± 0.16 SUV
- Biodistribution thymus ([3]; 5 min p.i.): 0.76 ± 0.18 SUV
- Biodistribution thyroid gland ([3]; 5 min p.i.): 0.71 ± 0.4 SUV
- Biodistribution urine (calc.) ([3]; 5 min p.i.): 3.32 ± 4.35 %ID
- Biodistribution adrenals ([3]; 60 min p.i.): 1.85 ± 1.91 SUV
- Biodistribution blood ([3]; 60 min p.i.): 0.12 ± 0.04 SUV
- Biodistribution brain ([3]; 60 min p.i.): 0.12 ± 0.04 SUV
- Biodistribution femur (femur uptake, 18F-defluorination) ([3]; 60 min p.i.): 4.1 ± 0.6 SUV
- Biodistribution harderian gland ([3]; 60 min p.i.): 0.64 ± 0.28 SUV
- Biodistribution heart ([3]; 60 min p.i.): 0.15 ± 0.02 SUV
- Biodistribution intestine ([3]; 60 min p.i.): 19.43 ± 2.27 %ID
- Biodistribution kidneys ([3]; 60 min p.i.): 0.36 ± 0.19 SUV
- Biodistribution liver ([3]; 60 min p.i.): 0.78 ± 0.2 SUV
- Biodistribution lung ([3]; 60 min p.i.): 0.19 ± 0.06 SUV
- Biodistribution muscle ([3]; 60 min p.i.): 0.21 ± 0.1 SUV
- Biodistribution pancreas ([3]; 60 min p.i.): 0.44 ± 0.28 SUV
- Biodistribution skin & hair ([3]; 60 min p.i.): 0.39 ± 0.2 SUV
- Biodistribution spleen ([3]; 60 min p.i.): 0.18 ± 0.07 SUV
- Biodistribution stomach ([3]; 60 min p.i.): 1.06 ± 0.42 %ID
- Biodistribution testes ([3]; 60 min p.i.): 0.27 ± 0.17 SUV
- Biodistribution thymus ([3]; 60 min p.i.): 0.28 ± 0.11 SUV
- Biodistribution thyroid gland ([3]; 60 min p.i.): 0.67 ± 0.37 SUV
- Biodistribution urine (calc.) ([3]; 60 min p.i.): 8.55 ± 2.53 %ID
- Biodistribution WAT ([3]; 5 min p.i.): 1.45 ± 0.53 SUV
- Biodistribution WAT ([3]; 60 min p.i.): 1.67 ± 0.23 SUV

Compound: C[C@]12CC[C@H]3[C@@H](CCC4=CC(=O)CC[C@@]43C)[C@@H]1CC[C@@H]2O [Testosteron, reference compound]
- conversion by mouse liver microsomes (positive control for oxidation) [1]: Complete conversion

Compound: Cc1ccc(-c2cc(C(F)(F)F)nn2-c2ccc(S(N)(=O)=O)cc2)cc1 [Celecoxib]
- IC50 [4]: 16 µM
- IC50 [5]: 35 µM
- IC50 (hCA-XII): 18 nM
- IC50 (protein kinase B (PKB)): 28 µM
- extent of metabolism to the hydroxyl form by CYP3A4 (CYP3A4): < 25%
- IC50 (hCA-IX): 16 nM
- IC50 ([6]; ref 52): 3.5 µM
- IC50 ([6]; ref 53): 48 µM

Compound: [11CH3]c1ccc(-c2cc(C(F)(F)F)nn2-c2ccc(S(N)(=O)=O)cc2)cc1 [[^11C]celecoxib]
- intact radiotracer in blood [7]: 17%
